The assay has as its target PI3Kα E545K (Homo sapiens, UniProt P42336, E545K). Kind of assay: PI3Kα E545K mutant in vitro cell based assay, MDA-MB-361 cells. Details: MDA-MB-361 (ATCC-HTB-27) cell line (PI3Kα E545K); host or cells: MDA-MB-361. The conditions noted are these: MDA-MB-361 cell line, 0% FBS, no insulin, 3 hours treatment. An excerpt: PI3K-Alpha Kinase (PI3Kα) Activity: Wild-Type PI3Kα, H1047R Mutant PI3Kα, and E545K Mutant PI3Kα In Vitro Cell Based Assays and Determination of IC50 Values for Inhibitors
The MDA-MB-453 (ATCC-HTB-131) cell line (PI3Kα H1047R) and MCF-7 (ATCC-HTB-22) cell line (PI3Kα E545K), MDA-MB-361 (ATCC-HTB-27) cell line (PI3Kα E545K), and SKBR3 (ATCC-HTB-30) cell line (wild type PI3Kα) were obtained from the American Type Culture Collection (Manassas, VA). MDA-MB-453 cells were maintained in Dulbecco's Modified Eagle Media (DMEM, Gibco 12430) supplemented with 10% Fetal Bovine Serum, heat inactivated (FBS HI, Gibco 10082), 1× non-essential amino acids (NEAA, Gibco 11140), 1 mM sodium pyruvate (Gibco 11360) and 1× Anti-Anti (Gibco 15240). MCF-7 cells were maintained in Minimum Essential Media (MEM) (Gibco 11095) supplemented with 10% Fetal Bovine Serum, heat inactivated (FBS HI, Gibco 10082), 1× non-essential amino acids (NEAA, Gibco 11140), 1 mM sodium pyruvate (Gibco 11360), 1× Anti-Anti (Gibco 15240) and 10 μg/mL human insulin (Sigma I 9278). MDA-MB-361 cells were maintained in Dulbecco's Modified Eagle Media (DMEM, Gibco 12430) supplemented with 20% Fetal Bovine Serum, heat inactivated (FBS HI, Gibco 10082), 1× non-essential amino acids (NEAA, Gibco 11140), 1 mM sodium pyruvate (Gibco 11360) and 1× Anti-Anti (Gibco 15240). SKBR3 cells were maintained in McCoy's 5A (Gibco 16600) supplemented with 10% Fetal Bovine Serum, heat inactivated (FBS HI, Gibco 10082), and 1× Anti-Anti (Gibco 15240). Cultures were maintained in a humidified incubator at 37° C. under 5% CO2/95% air.
For compound testing in 0% FBS, MDA-MB-453, MCF-7 and SKBR3 cells were seeded at a density of 1.5×10^4, 1.0×10^4, and 1.0×10^4 cells, respectively, per well in white 384-well plates in 20 μl of Minimum Essential Media (MEM) assay media with 1×NEAA, 1 mM sodium pyruvate, and 1 μg/mL human insulin (Sigma 19278) (Assay Medium); while MDA-MB-361 cells were seeded at a density of 1.5×10^4 per well in white 384-well plates in 20 μl Assay Medium without insulin. After plating, cells were allowed to attach overnight. Compounds dissolved in 10 mM stock solutions in DMSO were serially diluted 1:3 in DMSO to generate a 10-point dilution series and plated using an acoustic liquid handler system (Echo 550 Series Liquid Handler, Labcyte). A 5× intermediate compound dilution plate in MEM with 1×NEAA and 1 mM sodium pyruvate (150 μM starting compound concentration in 1.5% DMSO) was then prepared. Five μl of the intermediate serially diluted compounds were added to the cell plate to final concentrations ranging from […] in 0.3% DMSO. 0.3% DMSO alone was used to establish the maximum (MAX) signal and GDC-0032 at a final concentration of 1 μM was used as a reference compound for the minimum (MIN) signal. After 3 hours treatment, the medium was removed, and the cells were lysed in 10 μL of 1× SureFire Lysis buffer with shaking for 10 minutes at room temperature. The Acceptor Mix (Reaction Buffer 1+Reaction Buffer 2+Activation Buffer+SureFire Ultra Acceptor Beads) was prepared by diluting Activation buffer 25-fold in combined Reaction Buffer 1 and Reaction Buffer 2.
The Acceptor beads were diluted 50-fold in the combined Reaction Buffers. Five μL of Acceptor Mix was added to each well, the plate was sealed and covered with foil and incubated for 1 hour at room temperature. The Donor Mix (dilution buffer+SureFire Ultra Donor Beads) was prepared by diluting Donor Beads 50-fold in dilution buffer. Five μL of the Donor Mix was added to each well and the plate sealed and covered with foil and incubated for 1-2 hours at room temperature in the dark. The plates were read on a Neo2 plate reader instrument from Biotek using standard AlphaLisa settings.
Compounds were tested in duplicate and the % inhibition at each compound concentration was used to generate two dose response curves. One IC50 was generated using average % inhibition at each compound concentration. […]

Chain of PI3Kα E545K (P42336 whole entry E545K): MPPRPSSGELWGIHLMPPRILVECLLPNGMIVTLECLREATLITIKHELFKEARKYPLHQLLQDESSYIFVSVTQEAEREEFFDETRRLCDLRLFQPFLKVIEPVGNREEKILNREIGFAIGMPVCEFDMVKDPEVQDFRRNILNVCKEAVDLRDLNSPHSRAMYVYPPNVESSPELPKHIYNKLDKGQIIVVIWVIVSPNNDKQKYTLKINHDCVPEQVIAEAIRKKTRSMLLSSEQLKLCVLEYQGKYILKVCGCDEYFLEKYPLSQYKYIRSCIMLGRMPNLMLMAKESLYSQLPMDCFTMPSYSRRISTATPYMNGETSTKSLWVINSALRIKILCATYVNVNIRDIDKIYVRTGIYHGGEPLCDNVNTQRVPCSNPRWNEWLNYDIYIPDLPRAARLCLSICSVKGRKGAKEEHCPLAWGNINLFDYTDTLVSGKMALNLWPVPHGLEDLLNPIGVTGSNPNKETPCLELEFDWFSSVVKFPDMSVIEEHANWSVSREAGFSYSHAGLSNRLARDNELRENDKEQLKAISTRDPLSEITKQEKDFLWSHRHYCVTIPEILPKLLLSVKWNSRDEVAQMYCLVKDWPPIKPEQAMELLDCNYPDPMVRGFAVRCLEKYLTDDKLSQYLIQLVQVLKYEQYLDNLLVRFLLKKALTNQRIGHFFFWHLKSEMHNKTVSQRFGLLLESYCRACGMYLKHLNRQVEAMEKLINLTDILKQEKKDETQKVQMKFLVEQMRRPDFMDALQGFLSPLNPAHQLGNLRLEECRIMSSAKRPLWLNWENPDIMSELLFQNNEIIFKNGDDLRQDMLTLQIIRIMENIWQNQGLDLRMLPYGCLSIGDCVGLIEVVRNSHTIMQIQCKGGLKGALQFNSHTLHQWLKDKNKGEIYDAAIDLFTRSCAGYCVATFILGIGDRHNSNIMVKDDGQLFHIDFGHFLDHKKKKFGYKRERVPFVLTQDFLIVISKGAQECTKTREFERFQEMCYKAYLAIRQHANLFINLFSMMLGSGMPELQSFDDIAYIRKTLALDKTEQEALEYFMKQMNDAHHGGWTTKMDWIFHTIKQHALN
Chain of PI3Kα E545K (P27986 whole entry partner): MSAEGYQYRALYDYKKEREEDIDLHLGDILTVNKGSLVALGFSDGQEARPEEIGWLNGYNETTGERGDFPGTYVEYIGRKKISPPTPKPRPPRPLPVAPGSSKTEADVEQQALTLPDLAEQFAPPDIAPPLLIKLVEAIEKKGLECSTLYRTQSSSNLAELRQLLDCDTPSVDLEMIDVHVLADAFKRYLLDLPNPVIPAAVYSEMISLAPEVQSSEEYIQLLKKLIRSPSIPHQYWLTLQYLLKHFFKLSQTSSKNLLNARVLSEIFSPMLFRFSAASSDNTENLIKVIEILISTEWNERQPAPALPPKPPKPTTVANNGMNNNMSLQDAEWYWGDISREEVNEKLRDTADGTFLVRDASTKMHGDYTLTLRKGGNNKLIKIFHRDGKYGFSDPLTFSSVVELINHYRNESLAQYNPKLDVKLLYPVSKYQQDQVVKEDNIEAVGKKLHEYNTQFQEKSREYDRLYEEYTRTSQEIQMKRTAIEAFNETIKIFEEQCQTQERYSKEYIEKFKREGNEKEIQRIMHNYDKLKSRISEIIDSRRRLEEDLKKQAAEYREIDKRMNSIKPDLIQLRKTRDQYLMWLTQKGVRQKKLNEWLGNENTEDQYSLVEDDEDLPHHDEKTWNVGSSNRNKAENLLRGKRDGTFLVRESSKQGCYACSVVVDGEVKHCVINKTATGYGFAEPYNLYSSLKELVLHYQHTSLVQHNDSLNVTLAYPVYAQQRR

In turn, `Cc1cc([C@@H](C)Oc2cccnc2-c2ccccc2F)c2oc(-c3ccc(=O)[nH]c3)c(C)c(=O)c2c1` [Example 30A] returned an IC50 of less than 500 nM.

Turning to `Cc1cc([C@@H](C)Oc2ccc(Cl)nc2C(N)=O)c2oc(-c3cnn(C(F)F)c3)c(C)c(=O)c2c1` [Example 58A, 6-Chloro-3-[(1R)-1-[2-[1-(difluoromethyl)pyrazol-4-yl]-3,6-dimethyl-4-oxo-chromen-8-yl]ethoxy]pyridine-2-carboxamide], the IC50 was less than 500 nM. For `Cc1cc([C@@H](C)Oc2ccc(Cl)nc2S(N)(=O)=O)c2oc(-c3cnn(C)c3)c(C)c(=O)c2c1` [Example 14A, 6-Chloro-3-[(1R)-1-[3,6-dimethyl-2-(1-methylpyrazol-4-yl)-4-oxo-chromen-8-yl]ethoxy]pyridine-2-sulfonamide] the value was less than 500 nM. As to `Cc1cc([C@@H](C)Oc2ccc(Cl)nc2C(N)=O)c2oc(-c3ccc4nn(C)nc4c3)c(C)c(=O)c2c1` [Example 50A, 6-Chloro-3-[(1R)-1-[3,6-dimethyl-2-(2-methylbenzotriazol-5-yl)-4-oxo-chromen-8-yl]ethoxy]pyridine-2-carboxamide], the IC50 is less than 500 nM. `Cc1cc([C@@H](C)Oc2ccc(Cl)nc2C(N)=O)c2oc(C3CC3)c(C)c(=O)c2c1` [Example 63A, 6-Chloro-3-[(1R)-1-(2-cyclopropyl-3,6-dimethyl-4-oxo-chromen-8-yl)ethoxy]pyridine-2-carboxamide] displayed an IC50 of less than 500 nM. For `Cc1cc([C@@H](C)Oc2ccc(Cl)nc2S(N)(=O)=O)c2oc(-c3cnc(OC(C)C)nc3)c(C)c(=O)c2c1` [Example 23C, 6-Chloro-3-[(1R)-1-[2-(2-isopropoxypyrimidin-5-yl)-3,6-dimethyl-4-oxo-chromen-8-yl]ethoxy]pyridine-2-sulfonamide] the value was less than 500 nM; for `Cc1cc([C@@H](C)Oc2ccc(Cl)nc2C(N)=O)c2oc(-c3cnn(C4CC4)c3)c(C)c(=O)c2c1` [Example 51A, 6-Chloro-3-[(1R)-1-[2-(1-cyclopropylpyrazol-4-yl)-3,6-dimethyl-4-oxo-chromen-8-yl]ethoxy]pyridine-2-carboxamide], less than 500 nM; for `Cc1cc([C@@H](C)Oc2ccccc2S(N)(=O)=O)c2oc(-c3ccccc3)c(C)c(=O)c2c1` [Example 102C, 2-[(1R)-1-(3,6-Dimethyl-4-oxo-2-phenyl-chromen-8-yl)ethoxy]benzenesulfonamide], less than 500 nM. For `Cc1cc([C@@H](C)Oc2ccc(Cl)nc2S(N)(=O)=O)c2oc(-c3cnn4c3COCC4)c(C)c(=O)c2c1` [Example 3B, 6-Chloro-3-[(1R)-1-[2-(6,7-dihydro-4H-pyrazolo[5,1-c][1,4]oxazin-3-yl)-3,6-dimethyl-4-oxo-chromen-8-yl]ethoxy]pyridine-2-sulfonamide], the IC50 is less than 500 nM.

The compound `Cc1cc([C@@H](C)Oc2ccc(Cl)nc2S(N)(=O)=O)c2oc(-c3cnc4c(c3)OCO4)c(C)c(=O)c2c1` [Example 15A, 6-Chloro-3-[(1R)-1-[2-([1,3]dioxolo[4,5-b]pyridin-6-yl)-3,6-dimethyl-4-oxo-chromen-8-yl]ethoxy]pyridine-2-sulfonamide] returned an IC50 of less than 500 nM. Take `Cc1cc([C@@H](C)Oc2ccc(Cl)nc2C(N)=O)c2oc(-c3ccc4occc4c3)c(C)c(=O)c2c1` [Example 61C, 3-[(1R)-1-[2-(Benzofuran-5-yl)-3,6-dimethyl-4-oxo-chromen-8-yl]ethoxy]-6-chloro-pyridine-2-carboxamide]: the IC50 is less than 500 nM. In turn, `Cc1cc([C@@H](C)Oc2ccc(F)cc2S(N)(=O)=O)c2oc(-c3cnc4ccoc4c3)c(C)c(=O)c2c1` [Example 106C, 5-Fluoro-2-[(1R)-1-(2-furo[3,2-b]pyridin-6-yl-3,6-dimethyl-4-oxo-chromen-8-yl)ethoxy]benzenesulfonamide] registered an IC50 of less than 500 nM. The figure for `Cc1cc([C@@H](C)Oc2ccc(Cl)nc2C(N)=O)c2oc(-c3cnn4c3COCC4)c(C)c(=O)c2c1` [Example 40A, 6-Chloro-3-[(1R)-1-[2-(6,7-dihydro-4H-pyrazolo[5,1-c][1,4]oxazin-3-yl)-3,6-dimethyl-4-oxo-chromen-8-yl]ethoxy]pyridine-2-carboxamide] is less than 500 nM; for `Cc1cc([C@@H](C)Oc2ccc(C)nc2S(N)(=O)=O)c2oc(-c3ccccc3)c(C)c(=O)c2c1` [Example 122C, 3-[(1R)-1-(3,6-Dimethyl-4-oxo-2-phenyl-chromen-8-yl)ethoxy]-6-methyl-pyridine-2-sulfonamide] it is less than 500 nM. For `Cc1cc([C@@H](C)Oc2ccc(Cl)nc2NC(=O)CO)c2oc(-c3cnn(C)c3)c(C)c(=O)c2c1` [Example 27B, N-[6-Chloro-3-[(1R)-1-[3,6-dimethyl-2-(1-methylpyrazol-4-yl)-4-oxo-chromen-8-yl]ethoxy]-2-pyridyl]-2-hydroxy-acetamide] the value was less than 500 nM; for `Cc1cc([C@@H](C)Oc2ccc(Cl)nc2C)c2oc(-c3cnn(CCO)c3)c(C)c(=O)c2c1` [Example 72C, 8-[(1R)-1-[(6-Chloro-2-methyl-3-pyridyl)oxy]ethyl]-2-[1-(2-hydroxyethyl)pyrazol-4-yl]-3,6-dimethyl-chromen-4-one], less than 500 nM; for `Cc1cc([C@@H](C)Oc2ccc(Cl)nc2C(N)=O)c2oc(-c3ccn4nc(C)cc4c3)c(C)c(=O)c2c1` [Example 76C, 6-Chloro-3-[(1R)-1-[3,6-dimethyl-2-(2-methylpyrazol[1,5-a]pyridin-5-yl)-4-oxo-chromen-8-yl]ethoxy]pyridine-2-carboxamide], less than 500 nM.

Consider `Cc1cc([C@@H](C)Oc2ccc(Cl)nc2C(N)=O)c2oc(-c3ccc4c(c3)OCCN4C)c(C)c(=O)c2c1` [Example 104A, 6-Chloro-3-[(1R)-1-[3,6-dimethyl-2-(4-methyl-2,3-dihydro-1,4-benzoxazin-7-yl)-4-oxo-chromen-8-yl]ethoxy]pyridine-2-carboxamide], for which the IC50 is less than 500 nM.

For `Cc1cc([C@@H](C)Oc2ccc(Cl)nc2C(N)=O)c2oc(-c3ccc4cncn4c3)c(C)c(=O)c2c1` [Example 43C, 6-Chloro-3-[(1R)-1-(2-imidazo[1,5-a]pyridin-6-yl-3,6-dimethyl-4-oxo-chromen-8-yl)ethoxy]pyridine-2-carboxamide], the IC50 was less than 500 nM. The figure for `Cc1cc([C@@H](C)Oc2ccc(Cl)nc2S(N)(=O)=O)c2oc(-c3cnn(C[C@]45C[C@H](CO4)C5)c3)c(C)c(=O)c2c1` [Example 118C, 6-Chloro-3-[(1R)-1-[3,6-dimethyl-2-[1-(2-oxabicyclo[2.1.1]hexan-1-ylmethyl)pyrazol-4-yl]-4-oxo-chromen-8-yl]ethoxy]pyridine-2-sulfonamide] is less than 500 nM; for `Cc1cc([C@@H](C)Oc2ccc(Cl)nc2S(N)(=O)=O)c2oc(-c3cnn(C)c3C)c(C)c(=O)c2c1` [Example 18C, 6-Chloro-3-[(1R)-1-[2-(1,5-dimethylpyrazol-4-yl)-3,6-dimethyl-4-oxo-chromen-8-yl]ethoxy]pyridine-2-sulfonamide] it is less than 500 nM.

By IC50 is commonly meant the point on the concentration scale where inhibition reaches its midpoint. A lower IC50 goes with greater potency in that assay.
